Source: patent publication US6525001B1, “Substituted pyrimidine and pyridine herbicides” (Mid-American Commercialization Corporation, priority 1997, dated 2003)

Tests used:
Assay in all cases: Test B pre-/postemergence
Assay type in all cases: in vivo
Set-up in all cases: key: 0 is no effect; 10 is complete control
[1] = tested on: purple nutsedge (Cyperus rotundus); conditions: for Plant response rating, Nutsedge: Postemergence
How it was run: (§1)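 Scored visually 0 (none) to 10 (complete control) against untreated plants after twelve to sixteen greenhouse days. Test chemicals, formulated in surfactant-containing non-phytotoxic solvent, applied to soil after planting and, separately, onto 1- to 4-leaf (2–18 cm) plants.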

[2] = tested on: wheat (Triticum aestivum)
How it was run: as §1

[3] = tested on: corn (Zea mays)
How it was run: as §1

[4] = tested on: momingglory (Ipomoea hederacea)
How it was run: as §1

[5] = tested on: giant foxtail (Setaria faberii)
How it was run: as §1

[6] = tested on: blackgrass (Alopecurus myosuroides)
How it was run: as §1

[7] = tested on: crabgrass (Digitaria sanguinalis)
How it was run: as §1

[8] = tested on: wild oat (Avena fatua)
How it was run: as §1

[9] = tested on: soybean (Glycine max)
How it was run: as §1

[10] = tested on: pigweed (Amaranthus retroflexus)
How it was run: as §1

[11] = tested on: broadleaf signalgrass (Brachiaria decumbens)
How it was run: as §1

[12] = tested on: cocklebur (Xanthium strumarium)
How it was run: as §1

[13] = tested on: velvetleaf (Abutilon theophrasti)
How it was run: as §1

[14] = tested on: sugar beet (Beta vulgaris)
How it was run: as §1

## COc1cnc(-c2ccc(C(F)(F)F)cc2)nc1Cc1cccc(C(F)(F)F)c1 [Compound 23]
[1]; Rate 62 g/ha
  Plant response rating, Nutsedge: 0
[1]; Rate 125 g/ha
  Plant response rating, Nutsedge: 0
[1]; Rate 125 g/ha, Preemergence
  Nutsedge plant response rating: 0
[2]; Rate 62 g/ha, Postemergence
  Plant response rating, Wheat: 3
[2]; Rate 62 g/ha, Preemergence
  Wheat plant response rating: 2
[2]; Rate 125 g/ha, Postemergence
  Plant response rating, Wheat: 4
[2]; Rate 125 g/ha, Preemergence
  Wheat plant response rating: 3
[2]; Rate 250 g/ha, Postemergence
  Plant response rating, Wheat: 5
[2]; Rate 250 g/ha, Preemergence
  Plant response rating, Wheat: 6
[3]; Rate 62 g/ha, Postemergence
  Plant response rating, Corn: 2
[3]; Rate 62 g/ha, Preemergence
  Corn plant response rating: 0
[3]; Rate 125 g/ha, Postemergence
  Plant response rating, Corn: 3
[3]; Rate 125 g/ha, Preemergence
  Corn plant response rating: 1
[3]; Rate 250 g/ha, Postemergence
  Plant response rating, Corn: 3
[3]; Rate 250 g/ha, Preemergence
  Plant response rating, Corn: 1
[4]; Rate 62 g/ha, Postemergence
  Plant response rating, Morningglory: 6
[4]; Rate 62 g/ha, Preemergence
  Morningglory plant response rating: 4
[4]; Rate 125 g/ha, Postemergence
  Plant response rating, Morningglory: 9
[4]; Rate 125 g/ha, Preemergence
  Morningglory plant response rating: 8
[4]; Rate 250 g/ha, Postemergence
  Plant response rating, Morningglory: 9
[4]; Rate 250 g/ha, Preemergence
  Plant response rating, Morningglory: 10
[5]; Rate 62 g/ha, Postemergence
  Plant response rating, Giant foxtail: 2
[5]; Rate 62 g/ha, Preemergence
  Giant foxtail plant response rating: 10
[5]; Rate 125 g/ha, Postemergence
  Plant response rating, Giant foxtail: 5
[5]; Rate 125 g/ha, Preemergence
  Giant foxtail plant response rating: 10
[5]; Rate 250 g/ha, Postemergence
  Plant response rating, Giant foxtail: 9
[5]; Rate 250 g/ha, Preemergence
  Plant response rating, Giant foxtail: 10
[6]; Rate 62 g/ha, Postemergence
  Plant response rating, Blackgrass: 6
[6]; Rate 62 g/ha, Preemergence
  Blackgrass plant response rating: 6
[6]; Rate 125 g/ha, Postemergence
  Plant response rating, Blackgrass: 7
[6]; Rate 125 g/ha, Preemergence
  Blackgrass plant response rating: 9
[6]; Rate 250 g/ha, Postemergence
  Plant response rating, Blackgrass: 9
[6]; Rate 250 g/ha, Preemergence
  Plant response rating, Blackgrass: 9
[7]; Rate 62 g/ha, Postemergence
  Plant response rating, Crabgrass: 7
[7]; Rate 62 g/ha, Preemergence
  Crabgrass plant response rating: 9
[7]; Rate 125 g/ha, Postemergence
  Plant response rating, Crabgrass: 9
[7]; Rate 125 g/ha, Preemergence
  Crabgrass plant response rating: 10
[7]; Rate 250 g/ha, Postemergence
  Plant response rating, Crabgrass: 9
[7]; Rate 250 g/ha, Preemergence
  Plant response rating, Crabgrass: 10
[8]; Rate 62 g/ha, Postemergence
  Plant response rating, Wild oats: 5
[8]; Rate 62 g/ha, Preemergence
  Wild oats plant response rating: 7
[8]; Rate 125 g/ha, Postemergence
  Plant response rating, Wild oats: 6
[8]; Rate 125 g/ha, Preemergence
  Wild oats plant response rating: 8
[8]; Rate 250 g/ha, Postemergence
  Plant response rating, Wild oats: 9
[8]; Rate 250 g/ha, Preemergence
  Plant response rating, Wild oats: 9
[9]; Rate 62 g/ha, Postemergence
  Plant response rating, Soybean: 8
[9]; Rate 62 g/ha, Preemergence
  Soybean plant response rating: 1
[9]; Rate 125 g/ha, Postemergence
  Plant response rating, Soybean: 8
[9]; Rate 125 g/ha, Preemergence
  Soybean plant response rating: 1
[9]; Rate 250 g/ha, Postemergence
  Plant response rating, Soybean: 8
[9]; Rate 250 g/ha, Preemergence
  Plant response rating, Soybean: 1
[10]; Rate 62 g/ha, Postemergence
  Plant response rating, Redroot pigweed: 9
[10]; Rate 62 g/ha, Preemergence
  Redroot pigweed plant response rating: 9
[10]; Rate 125 g/ha, Postemergence
  Plant response rating, Redroot pigweed: 10
[10]; Rate 125 g/ha, Preemergence
  Redroot pigweed plant response rating: 9
[10]; Rate 250 g/ha, Postemergence
  Plant response rating, Redroot pigweed: 10
[10]; Rate 250 g/ha, Preemergence
  Plant response rating, Redroot pigweed: 10
[11]; Rate 62 g/ha, Postemergence
  Plant response rating, B. signalgrass: 4
[11]; Rate 62 g/ha, Preemergence
  B. signalgrass plant response rating: 9
[11]; Rate 125 g/ha, Postemergence
  Plant response rating, B. signalgrass: 5
[11]; Rate 125 g/ha, Preemergence
  B. signalgrass plant response rating: 9
[11]; Rate 250 g/ha, Postemergence
  Plant response rating, B. signalgrass: 9
[11]; Rate 250 g/ha, Preemergence
  Plant response rating, B. signalgrass: 9
[12]; Rate 62 g/ha, Postemergence
  Plant response rating, Cocklebur: 9
[12]; Rate 62 g/ha, Preemergence
  Cocklebur plant response rating: 1
[12]; Rate 125 g/ha, Postemergence
  Plant response rating, Cocklebur: 10
[12]; Rate 125 g/ha, Preemergence
  Cocklebur plant response rating: 1
[12]; Rate 250 g/ha, Postemergence
  Plant response rating, Cocklebur: 10
[12]; Rate 250 g/ha, Preemergence
  Plant response rating, Cocklebur: 3
[13]; Rate 62 g/ha, Postemergence
  Plant response rating, Velvetleaf: 9
[13]; Rate 62 g/ha, Preemergence
  Velvetleaf plant response rating: 1
[13]; Rate 125 g/ha, Postemergence
  Plant response rating, Velvetleaf: 9
[13]; Rate 125 g/ha, Preemergence
  Velvetleaf plant response rating: 3
[13]; Rate 250 g/ha, Postemergence
  Plant response rating, Velvetleaf: 9
[13]; Rate 250 g/ha, Preemergence
  Plant response rating, Velvetleaf: 10
[14]; Rate 62 g/ha, Postemergence
  Plant response rating, Sugarbeets: 10
[14]; Rate 62 g/ha, Preemergence
  Sugarbeets plant response rating: 8
[14]; Rate 125 g/ha, Postemergence
  Plant response rating, Sugarbeets: 10
[14]; Rate 125 g/ha, Preemergence
  Sugarbeets plant response rating: 8
[14]; Rate 250 g/ha, Postemergence
  Plant response rating, Sugarbeets: 10
[14]; Rate 250 g/ha, Preemergence
  Plant response rating, Sugarbeets: 10
